The compounds below were run on KG-1. Details: 72 h.
Outline: (§1)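 Fifteen myeloid leukaemia cell lines were seeded in RPMI 1640 at densities titrated to the linear growth range and placed in 384-well plates with acoustically pre-printed compounds at five tenfold doses from 1 to 10,000 nM, in duplicate. After 72 h at 37 °C with 5% CO2, luminescent ATP viability was normalised to vehicle and to a positive control at 10 µM, and curves were fitted with a four-parameter log-logistic model. The IC50 was obtained from these fits.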

Row | SMILES | IC50 (cell viability) [µM]
1 | C=CCN(C)CCCCCCOc1ccc(C(=O)c2ccc(Br)cc2)c(F)c1.O=C(O)/C=C/C(=O)O [Ro 48-8071 fumarate] | 6.11

These compounds were tested on KU-812. Details: 72 h.
Outline: as §1

Row | SMILES | IC50 (cell viability) [µM]
2 | CN(Cc1cnc2nc(N)nc(N)c2n1)c1ccc(C(=O)N[C@@H](CCC(=O)O)C(=O)O)cc1 [Methotrexate] | 0.0157
3 | COC(=O)c1cc2c(C(F)(F)F)cc(-c3ccccc3)cc2n1O [NHI-2] | > 10
4 | CCCCCCCC/C=C\CCCCCCCC(=O)Nc1ccccc1 [Octadec-9-Enoic Acid Phenylamide] | > 10
5 | CC[C@H](C)[C@H](N)C(=O)N1CCSC1 [P32/98] | > 10
6 | CC(=O)Nc1nc(C)c(-c2ccc(Cl)c(S(=O)(=O)NCCO)c2)s1 [PIK93] | 2.69
7 | OC[C@H]1O[C@@H](n2cnc3c2N=CNC[C@H]3O)C[C@@H]1O [Pentostatin] | > 10
8 | CC(C)CC(=O)N[C@H](C(=O)N[C@H](C(=O)N[C@@H](CC(C)C)[C@@H](O)CC(=O)N[C@@H](C)C(=O)N[C@@H](CC(C)C)[C@@H](O)CC(=O)O)C(C)C)C(C)C [Pepstatin A] | > 10
9 | Cc1cccc(Nc2cc(Cl)nc(SCC(=O)O)n2)c1C [Pirinixic acid] | > 10
10 | C[C@]12C=CC(=O)C=C1CC[C@@H]1[C@@H]2[C@@H](O)C[C@@]2(C)[C@H]1CC[C@]2(O)C(=O)CO [Prednisolone] | > 10
11 | C=CCN(C)CCCCCCOc1ccc(C(=O)c2ccc(Br)cc2)c(F)c1.O=C(O)/C=C/C(=O)O [Ro 48-8071 fumarate] | 9.97

The compounds below were run on LAMA-84. Details: 72 h.
Outline: as §1

Row | SMILES | IC50 (cell viability) [µM]
12 | CN(Cc1cnc2nc(N)nc(N)c2n1)c1ccc(C(=O)N[C@@H](CCC(=O)O)C(=O)O)cc1 [Methotrexate] | 0.00473
13 | COC(=O)c1cc2c(C(F)(F)F)cc(-c3ccccc3)cc2n1O [NHI-2] | > 10
14 | CCCCCCCC/C=C\CCCCCCCC(=O)Nc1ccccc1 [Octadec-9-Enoic Acid Phenylamide] | > 10
15 | CC[C@H](C)[C@H](N)C(=O)N1CCSC1 [P32/98] | > 10
16 | CC(=O)Nc1nc(C)c(-c2ccc(Cl)c(S(=O)(=O)NCCO)c2)s1 [PIK93] | 8.06
17 | OC[C@H]1O[C@@H](n2cnc3c2N=CNC[C@H]3O)C[C@@H]1O [Pentostatin] | > 10
18 | CC(C)CC(=O)N[C@H](C(=O)N[C@H](C(=O)N[C@@H](CC(C)C)[C@@H](O)CC(=O)N[C@@H](C)C(=O)N[C@@H](CC(C)C)[C@@H](O)CC(=O)O)C(C)C)C(C)C [Pepstatin A] | > 10
19 | Cc1cccc(Nc2cc(Cl)nc(SCC(=O)O)n2)c1C [Pirinixic acid] | > 10
20 | C[C@]12C=CC(=O)C=C1CC[C@@H]1[C@@H]2[C@@H](O)C[C@@]2(C)[C@H]1CC[C@]2(O)C(=O)CO [Prednisolone] | > 10
21 | C=CCN(C)CCCCCCOc1ccc(C(=O)c2ccc(Br)cc2)c(F)c1.O=C(O)/C=C/C(=O)O [Ro 48-8071 fumarate] | 8.49

The compounds below were run on ML-2. Details: 72 h.
Outline: as §1

Row | SMILES | IC50 (cell viability) [µM]
22 | CN(Cc1cnc2nc(N)nc(N)c2n1)c1ccc(C(=O)N[C@@H](CCC(=O)O)C(=O)O)cc1 [Methotrexate] | 0.00965
23 | COC(=O)c1cc2c(C(F)(F)F)cc(-c3ccccc3)cc2n1O [NHI-2] | > 10
24 | CCCCCCCC/C=C\CCCCCCCC(=O)Nc1ccccc1 [Octadec-9-Enoic Acid Phenylamide] | > 10
25 | CC[C@H](C)[C@H](N)C(=O)N1CCSC1 [P32/98] | > 10
26 | CC(=O)Nc1nc(C)c(-c2ccc(Cl)c(S(=O)(=O)NCCO)c2)s1 [PIK93] | 0.607
27 | OC[C@H]1O[C@@H](n2cnc3c2N=CNC[C@H]3O)C[C@@H]1O [Pentostatin] | > 10
28 | CC(C)CC(=O)N[C@H](C(=O)N[C@H](C(=O)N[C@@H](CC(C)C)[C@@H](O)CC(=O)N[C@@H](C)C(=O)N[C@@H](CC(C)C)[C@@H](O)CC(=O)O)C(C)C)C(C)C [Pepstatin A] | > 10
29 | Cc1cccc(Nc2cc(Cl)nc(SCC(=O)O)n2)c1C [Pirinixic acid] | > 10
30 | C[C@]12C=CC(=O)C=C1CC[C@@H]1[C@@H]2[C@@H](O)C[C@@]2(C)[C@H]1CC[C@]2(O)C(=O)CO [Prednisolone] | > 10
31 | C=CCN(C)CCCCCCOc1ccc(C(=O)c2ccc(Br)cc2)c(F)c1.O=C(O)/C=C/C(=O)O [Ro 48-8071 fumarate] | > 10

The compounds below were run on MOLM-13. Details: 72 h.
Outline: as §1

Row | SMILES | IC50 (cell viability) [µM]
32 | CN(Cc1cnc2nc(N)nc(N)c2n1)c1ccc(C(=O)N[C@@H](CCC(=O)O)C(=O)O)cc1 [Methotrexate] | 0.00757
33 | COC(=O)c1cc2c(C(F)(F)F)cc(-c3ccccc3)cc2n1O [NHI-2] | > 10
34 | CCCCCCCC/C=C\CCCCCCCC(=O)Nc1ccccc1 [Octadec-9-Enoic Acid Phenylamide] | > 10
35 | CC[C@H](C)[C@H](N)C(=O)N1CCSC1 [P32/98] | > 10
36 | CC(=O)Nc1nc(C)c(-c2ccc(Cl)c(S(=O)(=O)NCCO)c2)s1 [PIK93] | 0.959
37 | OC[C@H]1O[C@@H](n2cnc3c2N=CNC[C@H]3O)C[C@@H]1O [Pentostatin] | > 10
38 | CC(C)CC(=O)N[C@H](C(=O)N[C@H](C(=O)N[C@@H](CC(C)C)[C@@H](O)CC(=O)N[C@@H](C)C(=O)N[C@@H](CC(C)C)[C@@H](O)CC(=O)O)C(C)C)C(C)C [Pepstatin A] | > 10
39 | Cc1cccc(Nc2cc(Cl)nc(SCC(=O)O)n2)c1C [Pirinixic acid] | > 10
40 | C[C@]12C=CC(=O)C=C1CC[C@@H]1[C@@H]2[C@@H](O)C[C@@]2(C)[C@H]1CC[C@]2(O)C(=O)CO [Prednisolone] | > 10
41 | C=CCN(C)CCCCCCOc1ccc(C(=O)c2ccc(Br)cc2)c(F)c1.O=C(O)/C=C/C(=O)O [Ro 48-8071 fumarate] | > 10

The compounds below were run on MV4-11. Details: 72 h.
Outline: as §1

Row | SMILES | IC50 (cell viability) [µM]
42 | CN(Cc1cnc2nc(N)nc(N)c2n1)c1ccc(C(=O)N[C@@H](CCC(=O)O)C(=O)O)cc1 [Methotrexate] | 0.00896
43 | COC(=O)c1cc2c(C(F)(F)F)cc(-c3ccccc3)cc2n1O [NHI-2] | > 10
44 | CCCCCCCC/C=C\CCCCCCCC(=O)Nc1ccccc1 [Octadec-9-Enoic Acid Phenylamide] | > 10
45 | CC[C@H](C)[C@H](N)C(=O)N1CCSC1 [P32/98] | > 10
46 | CC(=O)Nc1nc(C)c(-c2ccc(Cl)c(S(=O)(=O)NCCO)c2)s1 [PIK93] | 1.09
47 | OC[C@H]1O[C@@H](n2cnc3c2N=CNC[C@H]3O)C[C@@H]1O [Pentostatin] | > 10
48 | CC(C)CC(=O)N[C@H](C(=O)N[C@H](C(=O)N[C@@H](CC(C)C)[C@@H](O)CC(=O)N[C@@H](C)C(=O)N[C@@H](CC(C)C)[C@@H](O)CC(=O)O)C(C)C)C(C)C [Pepstatin A] | > 10
49 | Cc1cccc(Nc2cc(Cl)nc(SCC(=O)O)n2)c1C [Pirinixic acid] | > 10
50 | C[C@]12C=CC(=O)C=C1CC[C@@H]1[C@@H]2[C@@H](O)C[C@@]2(C)[C@H]1CC[C@]2(O)C(=O)CO [Prednisolone] | > 10
51 | C=CCN(C)CCCCCCOc1ccc(C(=O)c2ccc(Br)cc2)c(F)c1.O=C(O)/C=C/C(=O)O [Ro 48-8071 fumarate] | 5.95

These compounds were tested on Mono-Mac-6. Details: 72 h.
Outline: as §1

Row | SMILES | IC50 (cell viability) [µM]
52 | CN(Cc1cnc2nc(N)nc(N)c2n1)c1ccc(C(=O)N[C@@H](CCC(=O)O)C(=O)O)cc1 [Methotrexate] | 0.00826
53 | COC(=O)c1cc2c(C(F)(F)F)cc(-c3ccccc3)cc2n1O [NHI-2] | > 10
54 | CCCCCCCC/C=C\CCCCCCCC(=O)Nc1ccccc1 [Octadec-9-Enoic Acid Phenylamide] | > 10
55 | CC[C@H](C)[C@H](N)C(=O)N1CCSC1 [P32/98] | > 10
56 | CC(=O)Nc1nc(C)c(-c2ccc(Cl)c(S(=O)(=O)NCCO)c2)s1 [PIK93] | 1.02
57 | OC[C@H]1O[C@@H](n2cnc3c2N=CNC[C@H]3O)C[C@@H]1O [Pentostatin] | > 10
58 | CC(C)CC(=O)N[C@H](C(=O)N[C@H](C(=O)N[C@@H](CC(C)C)[C@@H](O)CC(=O)N[C@@H](C)C(=O)N[C@@H](CC(C)C)[C@@H](O)CC(=O)O)C(C)C)C(C)C [Pepstatin A] | > 10
59 | Cc1cccc(Nc2cc(Cl)nc(SCC(=O)O)n2)c1C [Pirinixic acid] | > 10

Source: the supplement of paper PMC8671470
